Reference: ChEMBL document CHEMBL3507680, “University of Dundee, Gates Library screen for HepG2 cell viability”

Assay: Human HepG2 cell viability assay in 384 well format
Format: toxicity, cell-based
Parameters: dose 125 nL, time 70.5 hour; concentration not given beside the values
Conditions: HepG2 cells, read-out: Inhibition

SMILES | cytotoxicity at 70.5 h [%]
Cc1ccc(Cl)c(C(C(=O)O)N(C)Cc2cnn(C)c2)c1 (stereo unspecified) | 5.66
Cc1ccccc1-n1cc(C2=CCN(CCn3cc[nH]c3=O)CC2)cn1 | -6.71
Cn1ccc2c(-c3ccc(NC4CC4)nn3)ccnc21 | -5.5
c1ccc(Oc2ncccc2CNCc2ccccn2)cc1 | -4.5
CSc1ccc(-n2ccnc2-c2cc3n(n2)CCNC3)cc1 | 25.5
Cc1nn(C)cc1Cn1c(=O)cnc2ccccc21 | -19.1
CN(CCO)Cc1nnc(C2CCN(C(=O)c3ccccn3)CC2)n1C | 1.55
CN(C)CCNc1cc(-c2ccc[nH]c2=O)c2cc[nH]c2n1 | -5.94
CO[C@H]1CN(C(C)C)C[C@@H]1NC(=O)c1cc(-c2ccccc2F)n[nH]1 | -6.15
COc1cc(C)sc1C(=O)N1CCCCC1c1ccccn1 (stereo unspecified) | -16.5
O=C(c1cccnc1N1CCOC(c2ccc(Cl)cc2)C1)N1CCCC1 (stereo unspecified) | -5.24
CCc1cnc(C)nc1NCC(O)CN1CCCCCC1 (stereo unspecified) | -4.26
O=C(c1cc(C2CC2)no1)N1C[C@H]2CC[C@@H]1CN(Cc1ccccn1)C2 | -14.9
CC(=O)c1ccc(N2CCC3(CCC(=O)N(C4CC4)C3)CC2)nc1 | -1.87
O=C1CC(c2ccc(CO)o2)c2cnn(Cc3ccco3)c2N1 (stereo unspecified) | -7.94
Cc1nc(C)n(CCNC(=O)C(C)n2ccnc2C(C)C)n1 (stereo unspecified) | -0.492
CCN(CC)C(=O)[C@@H]1C[C@H](NC(=O)c2cccn2C(C)C)CN1C | -9.19
CCC(Nc1nccc(C2CCCC2)n1)c1ccccn1 (stereo unspecified) | -3.14
O[C@]12CCNC[C@H]1CN(c1ncccc1Cl)CC2 | -16.6

SMILES | cytotoxicity at 70.5 h [%]
CSC(C)C(=O)N1CCC(Oc2cc(C)ccc2F)(C(=O)O)CC1 (stereo unspecified) | -7.76
Cc1nc(C)n(CC(C)C(=O)N2CCCN(C3CCCC3)CC2)n1 (stereo unspecified) | -6.07
O=C(c1cccc(Cl)c1F)N1CCOC2(CNCCOC2)C1 (stereo unspecified) | 32.2
Cc1ccc2cc(CN(C)Cc3nccs3)c(=O)[nH]c2c1 | -11.3
FC(F)(F)CCc1ncnn1-c1ccc2c(c1)OCO2 | -7.77
Cc1[nH]c(=O)c(C#N)cc1C(=O)N1C[C@@H](CN2CCCC2)C[C@H](CO)C1 | -7.24
COc1ccc(CCN2CCCC(CN(C)Cc3ccc(C)o3)C2)cc1 (stereo unspecified) | -5.02
Cc1ccc2c(ccn2CCC(=O)O)c1 | -4.94
Cc1cc(C(=O)N2CCC(c3nccn3Cc3ccncc3)CC2)no1 | 1.65
CS(=O)(=O)N1C[C@@H]2CC[C@H](C1)N(Cc1cscn1)C2=O | -11.4
Cc1ccccc1N1CCN(C(=O)c2ccc[nH]2)C(C)C1 (stereo unspecified) | -2.71
CCCn1nccc1C(=O)N1CCCN(CCCc2ccccc2)CC1 | -7.2
COc1ccc(C(=O)C2CCCN(Cc3ccc(C)o3)C2)c(OC)c1 (stereo unspecified) | -4.07
O=C(c1cc(COc2ccc3c(c2)OCO3)[nH]n1)N1CC=CC1CO (stereo unspecified) | -8.31
Cc1cnccc1N1CCCN(C(=O)CCCc2cn[nH]c2)CC1 | 2.95
Cc1nccnc1N1CCC2(CCCN(C3CCOCC3)C2=O)C1 (stereo unspecified) | 7.43
COc1cccc(N2CCN(Cc3ccc(NC(C)=O)cc3)CC2=O)c1 | 9.59
Cc1c[nH]c(CN(C)C(=O)c2cccc(CCC(C)(C)O)c2)n1 | -5.47
O=C(CSCC1CC1)N1CCCC(c2nccn2Cc2ccncc2)C1 (stereo unspecified) | -9.73

SMILES | cytotoxicity at 70.5 h [%]
Cc1scc(C(=O)N2CCC3(CC(=O)NC3=O)C2)c1-c1ccccc1 (stereo unspecified) | -11
Cc1cccnc1CNCC1(O)CCCN(Cc2ccc(F)cc2)C1=O (stereo unspecified) | 23.1
Cc1c(CN2CCOCC2)c(O)n(CCO)c(=O)c1C#N | 41
Cc1nn(CC(=O)n2cccn2)c(C)c1I | 15.6
CCc1noc(-c2cccc(C(=O)O)c2)n1 | 23.7
Cc1cc(SCC(=O)O)nc2nn(CC(F)F)c(C)c12 | -1.44
CCSc1ncc(Cl)c(C(=O)NC(CCSC)C(=O)O)n1 (stereo unspecified) | -7.9
CSc1ncc(Cl)c(C(=O)NC(Cc2ccccc2)C(=O)O)n1 (stereo unspecified) | 15
N#CCCn1nc(C(F)(F)F)c2c1CCCC2 | -6.63
COc1ccc(-c2cc(N)on2)cc1 | 13.8
CC(C)c1cc(COCCC(=O)O)no1 | -6.18
Cc1c(NC(=O)c2noc3c2CCCC3)cnn1C | 16.1
CCC(NC(=O)c1nn(C)cc1C(=O)O)c1ccccc1 (stereo unspecified) | -15.2
CCC(NC(=O)c1nn(C)cc1C(=O)O)c1ccc(C)cc1 (stereo unspecified) | -5.71
CC1=C(C#N)C(=O)NC(=O)/C1=C\c1c(C)nn(-c2ccc(Cl)cc2)c1O | -6.07
COc1ccc(N(c2ccc(C)cc2)c2ccc(C(=O)O)s2)cc1 | -0.995
Clc1ccc(C2NCCc3cc4c(cc32)OCCO4)cc1 (stereo unspecified) | 32.9
CCc1ccc(C2NCCc3cc4c(cc32)OCCO4)cc1 (stereo unspecified) | 8.93
